Nine molecules from ChEMBL document CHEMBL5338735, “Designing Smaller, Synthetic, Functional Mimetics of Sulfated Glycosaminoglycans as Allosteric Modulators of Coagulation Factors” (J Med Chem, 2023) can be followed below.

Some results are limits rather than exact numbers.

Test [1] addresses T1, Coagulation factor XI (Homo sapiens, UniProt P03951). In words: Inhibition of human recombinant FXIa assessed as S-2366 hydrolysis.
The target in test [2] is Coagulation factor X (Homo sapiens) (UniProt P00742). In words: Inhibition of human factor Xa assessed as fold change relative to basal value.
For test [3], the target named is T2, Prothrombin (Homo sapiens, UniProt P00734). In words: Inhibition of thrombin in human plasma assessed as maximal efficacy measured after 10 mins by chromogenic substrate hydrolysis assay relative to control. It counts as cell-free.
The target of test [4] is T2, Prothrombin. In words: Inhibition of thrombin in human plasma measured after 10 mins by chromogenic substrate hydrolysis assay. The format is cell-free.
The target in test [5] is T1, Coagulation factor XI. In words: Inhibition of human factor XIa.
For test [6], the target named is T1, Coagulation factor XI. In words: Inhibition of human Factor XIa assessed as substrate hydrolysis measured by measuring residual activity after 10 mins by chromogenic substrate hydrolysis assay relative to control.

T1 sequence (P03951 19-387 limits assumed): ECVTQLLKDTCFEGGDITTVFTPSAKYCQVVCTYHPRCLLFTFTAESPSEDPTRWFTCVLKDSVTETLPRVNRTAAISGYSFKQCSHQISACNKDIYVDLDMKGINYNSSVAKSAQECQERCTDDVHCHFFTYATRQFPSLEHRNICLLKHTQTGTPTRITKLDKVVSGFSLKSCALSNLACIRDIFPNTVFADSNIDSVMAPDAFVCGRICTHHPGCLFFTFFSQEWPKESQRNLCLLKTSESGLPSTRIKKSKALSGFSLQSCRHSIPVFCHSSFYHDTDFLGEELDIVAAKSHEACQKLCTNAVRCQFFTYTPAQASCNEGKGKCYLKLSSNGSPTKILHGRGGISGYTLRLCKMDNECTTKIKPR
T1 sequence (P03951 388-625 limits assumed): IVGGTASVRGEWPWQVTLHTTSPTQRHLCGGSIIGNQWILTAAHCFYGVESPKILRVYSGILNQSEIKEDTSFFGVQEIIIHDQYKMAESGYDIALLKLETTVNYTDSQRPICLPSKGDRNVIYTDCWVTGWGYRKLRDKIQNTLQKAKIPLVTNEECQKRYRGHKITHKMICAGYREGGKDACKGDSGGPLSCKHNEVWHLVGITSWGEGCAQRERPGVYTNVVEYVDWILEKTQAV
Coagulation factor X (Homo sapiens), sequence (P00742 41-179 limits assumed): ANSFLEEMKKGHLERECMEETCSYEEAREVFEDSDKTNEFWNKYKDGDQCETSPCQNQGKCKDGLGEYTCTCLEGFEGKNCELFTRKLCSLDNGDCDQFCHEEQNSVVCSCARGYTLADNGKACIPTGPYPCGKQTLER
Coagulation factor X (Homo sapiens), sequence (P00742 235-488 limits assumed): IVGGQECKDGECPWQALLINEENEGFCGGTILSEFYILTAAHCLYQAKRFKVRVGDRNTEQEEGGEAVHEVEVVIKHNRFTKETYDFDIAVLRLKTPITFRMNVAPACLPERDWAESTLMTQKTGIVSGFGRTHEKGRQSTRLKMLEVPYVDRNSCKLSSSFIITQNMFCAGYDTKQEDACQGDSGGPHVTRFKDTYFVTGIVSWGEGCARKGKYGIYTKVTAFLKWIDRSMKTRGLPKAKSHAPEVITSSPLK

Regarding `O=C(O[C@@H]1[C@H](OC(=O)c2cc(OS(=O)(=O)O)cc(OS(=O)(=O)O)c2)[C@@H](OC(=O)c2cc(OS(=O)(=O)O)cc(OS(=O)(=O)O)c2)[C@H](OC(=O)c2ccc(OS(=O)(=O)O)cc2OS(=O)(=O)O)[C@@H](OC(=O)c2cc(OS(=O)(=O)O)cc(OS(=O)(=O)O)c2)[C@H]1OC(=O)c1cc(OS(=O)(=O)O)cc(OS(=O)(=O)O)c1)c1cc(OS(=O)(=O)O)cc(OS(=O)(=O)O)c1`, the half-inhibitory concentration (IC50) on Coagulation factor XI [1] is 0.28 µM.

For `O=S(=O)(O)Oc1cc2c(c(OS(=O)(=O)O)c1)C[C@@H](OS(=O)(=O)O)[C@@H](c1ccc(OS(=O)(=O)O)c(OS(=O)(=O)O)c1)O2`, in test [2], the fold change (FC) turned out to be 10.8.

`O=c1oc2cc(OCCCCn3cc(COc4ccc(-c5oc(=O)c6c(Cl)cc(Cl)cc6c5-c5ccccc5)cc4)nn3)ccc2c(-c2ccccc2)c1-c1ccc(OS(=O)(=O)O)cc1`: the Efficacy at Prothrombin [3] was 47%. In addition, at Prothrombin [4], the IC50 came out at 0.18 µM.

Regarding `COc1cc2oc(C)c(C(=O)O)c2cc1OS(=O)(=O)O`, the 50% inhibitory concentration (IC50) against Coagulation factor XI [5] was above 2 µM.

Consider `O=C(Nc1ccc(C(=O)Nc2ccc(C(=O)Nc3ccc(S(=O)(=O)O)c4cc(S(=O)(=O)O)cc(S(=O)(=O)O)c34)cc2)cc1)Nc1ccc(C(=O)Nc2ccc(C(=O)Nc3ccc(S(=O)(=O)O)c4cc(S(=O)(=O)O)cc(S(=O)(=O)O)c34)cc2)cc1`, for which the Activity on Coagulation factor XI [6] was above 90%.

At Coagulation factor XI [5], `COc1cc2oc(C)c(C(=O)OC(C)(C)C)c2cc1OCc1oc2cc(OC)c(OS(=O)(=O)O)cc2c1C(=O)OC(C)(C)C` displayed a half-inhibitory concentration (IC50) of 7.3 µM.

Consider `Cc1ccc(C(=O)Nc2ccc(CP(=O)(O)O)cc2CP(=O)(O)O)cc1NC(=O)c1cccc(NC(=O)Nc2cccc(C(=O)Nc3cc(C(=O)Nc4ccc(CP(=O)(O)O)cc4CP(=O)(O)O)ccc3C)c2)c1`, for which the Activity on Coagulation factor XI [6] was 68%.

Turning to `O=S(=O)(O)Oc1cc2c(c(OS(=O)(=O)O)c1)C[C@H](OS(=O)(=O)O)[C@@H](c1ccc(OS(=O)(=O)O)c(OS(=O)(=O)O)c1)O2`, in test [2], the fold change (FC) turned out to be 20.8.

With `COc1cc(CCCS(=O)(=O)O)ccc1O[C@H](Cc1cccc(OC)c1O)CS(=O)(=O)O`, at Coagulation factor XI [5], the IC50 was found to be 0.15 µM.

A word on the IC50: it is the concentration that gives 50% inhibition.
